Values belong to the molecule of their own block, whether it stands above or below them.
Columns and labels:
[1] = system: antithrombin III (AT III); assay: Comparison Experiment 13: oxidative inactivation of antithrombin III; assay type: biochemical; settings: 37° C., 15 min preincubation, pH 8.8
Method: 50 pmol of AT III in 50 μl of 50 mM Tris, 100 mM NaCl, 0.1% (w/v) Triton×100, pH 8.8 buffer, are preincubated with increasing quantities of chloramine T or hydrogen peroxide in 50 μl of distilled water at 37° C. for 15 min. Then 3 pmol of human alpha-thrombin, 2.5 IU of heparin and 2 KIU of aprotinin in 500 μl of 100 mM Tris, 150 mM NaCl, pH 8.2, are added, and the mixture is incubated at 37° C. for 5 min. Addition of 500 μl of 0.4 mM H-D-CHA-But-ArgpNA was followed by further incubation for 3 min (37° C.). The reaction was stopped by 100 μl of 8.5 M acetic acid, and the change in extinction at 405 nm was determined.

human alpha-thrombin = assay: Comparison Experiment 13: oxidation resistance of thrombin; assay type: biochemical; settings: 500 nmol of chloramine T or 500 times the dose of H202
[2] = system: plasminogen activator inhibitors; settings: Lawrence and Loskutoff, Biochemistry 25, 6351-6355, 1986; cited from earlier work
urokinase [3] = assay: Comparison Experiment 1: conversion of chromogenic plasmin substrate / activity of urokinase in plasma with lysine and/or ammonium peroxodisulfate; assay type: biochemical
Method: 50μl of a plasma which is deficient in alpha2 -antiplasmin and has been prepared by immunoadsorption, as well as 1:2, 1:4 and 1:8 mixtures of this deficient plasma with normal plasma, where mixed with 200 μl or solution C (plasminogen activator reagent).
[…] of a 3 mM solution of H-D-Phe-Tyr-Arg-ANBA . 2 HCl in solution A and 500 µl of a plasminogen solution (2 CTA-U/ml) in solution A were added to the samples, the mixtures were incubated at 37° C. for 20 min, subsequently 100 μL of 8.5 M acetic acid were used to stop, and the extinction at 405 nm was determined. […] It is evident that addition of lysine increases the activity of urokinase by more than 100%.

plasmin [4] = assay: Comparison Experiments 5, 6, 8: optimization of reagent concentration in functional PAI (PA) determination (generated plasmin activity); assay type: biochemical
Method: (§1) Preincubation of 50 μl of sample with 200 μl of a variant of solution C (plasminogen activator dissolved in basic buffer U) at 37° C. for five minutes was followed by addition of 200 μl of a variant of plasminogen reagent (F), composed of 100 mM Tris-HCl pH 8.4, crosslinked polypeptides 1%, ^R Triton×100 0.1%, 100 mM NaCl without tran-examic acid, NaN3 0.01 % (basic buffer U) with 10 CTA-U/ml plasminogen and 200 μl of distilled water with 10 mM chloramine T, 3 mM tranexamic acid to the reaction mixture. The mixture was incubated at 37° C. for 5 min, and 500 μl of 0.6 mM chromogenic plasmin substrate HD-Nva-CHA-Lys-pNA in 480 mM NaCl (or, as a substitute, 200 mM CsCl) were added. The resultant linear change in extinction, delta A/min, at 405 nm was followed.

[5] = biological target: T1, plasmin and alpha2-antiplasmin (Homo sapiens, UniProt P00747); assay: Slowing of the reaction between plasmin and alpha2-antiplasmin by omega-amino carboxylic acids; assay type: biochemical; settings: lysine 10 to 3,000 mM, epsilon-aminocaproic acid 2 to 500 mM, tranexamic acid 0.1 to 50 mM
T1 construct: native proteins
T1 sequence (P00747 97-810): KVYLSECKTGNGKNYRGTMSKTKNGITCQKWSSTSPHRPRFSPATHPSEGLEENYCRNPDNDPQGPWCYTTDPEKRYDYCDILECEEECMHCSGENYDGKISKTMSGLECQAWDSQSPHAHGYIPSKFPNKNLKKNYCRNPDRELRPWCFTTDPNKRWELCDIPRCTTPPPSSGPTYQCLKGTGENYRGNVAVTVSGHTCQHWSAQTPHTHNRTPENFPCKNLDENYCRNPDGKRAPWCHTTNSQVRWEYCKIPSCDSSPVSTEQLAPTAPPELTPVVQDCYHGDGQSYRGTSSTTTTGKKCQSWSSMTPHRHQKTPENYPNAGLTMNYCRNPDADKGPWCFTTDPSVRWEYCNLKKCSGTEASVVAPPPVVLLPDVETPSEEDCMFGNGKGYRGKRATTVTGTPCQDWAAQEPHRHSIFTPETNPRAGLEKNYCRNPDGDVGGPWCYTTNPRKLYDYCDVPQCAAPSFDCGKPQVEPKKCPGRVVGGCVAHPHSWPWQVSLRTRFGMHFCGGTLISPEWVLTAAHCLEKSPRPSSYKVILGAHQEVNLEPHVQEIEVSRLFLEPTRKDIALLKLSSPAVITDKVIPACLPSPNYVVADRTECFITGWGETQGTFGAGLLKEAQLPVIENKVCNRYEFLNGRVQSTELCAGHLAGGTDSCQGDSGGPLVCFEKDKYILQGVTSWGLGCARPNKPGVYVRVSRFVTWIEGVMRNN
T1 sequence (P08697 40-491 partner): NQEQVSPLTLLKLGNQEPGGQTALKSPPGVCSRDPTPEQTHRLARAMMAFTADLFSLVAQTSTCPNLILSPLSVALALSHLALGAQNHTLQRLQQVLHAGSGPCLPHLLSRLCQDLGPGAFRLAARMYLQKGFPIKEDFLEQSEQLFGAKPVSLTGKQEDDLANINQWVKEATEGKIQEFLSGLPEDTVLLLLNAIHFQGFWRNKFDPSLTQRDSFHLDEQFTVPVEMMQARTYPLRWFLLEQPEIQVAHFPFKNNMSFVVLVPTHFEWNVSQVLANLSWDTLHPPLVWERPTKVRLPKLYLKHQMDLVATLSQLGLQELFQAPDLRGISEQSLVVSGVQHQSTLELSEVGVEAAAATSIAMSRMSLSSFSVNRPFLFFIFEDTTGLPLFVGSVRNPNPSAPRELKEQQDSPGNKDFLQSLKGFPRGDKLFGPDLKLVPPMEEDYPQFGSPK

PAI1 = assay: Example 5a: determination of PAI2 via preincubation with polycation-containing PA reagent; assay type: biochemical; settings: protamine chloride 100 U/ml or polylysine 500 μg/ml
plasmin [6] = assay: Comparison Experiment 11: effect of chloramine T and/or tranexamic acid on plasmin activity in the functional PAI assay; assay type: biochemical; settings: for delta A/4 min: 405 nm
Method: as §1

urokinase [7] = assay: Example 4: oxidation sensitivity of PAI1 and PAI2 (oxidation before addition of plasminogen activator reagent); assay type: biochemical; settings: oxidation with chloramine T before addition of plasminogen activator reagent
Method: 50 μl of sample were incubated with 500 μl of solution A (basic buffer) and 50 μl of solution B (oxidizing reagent) at 37° C. for 10 min. Addition of 200 μl of solution C (plasminogen activator reagent) was followed by incubation at 37° C. for 5 min. The substrate conversion was started by addition of 200 μl of solution E (plasmin substrate reagent) and 100 μl of solution F (plasminogen reagent) and the mixture was incubated at 37° C. for 15 min. After addition of 100 μl of 8.5 M acetic acid, the extinction at 405 nm was determined.

Molecule: OO [hydrogen peroxide]
dose of hydrogen peroxide inactivating 50 pmol of AT III, as a multiple [1]: 500 times the dose
activity of thrombin at the dose inactivating AT III (human alpha-thrombin): without the activity of thrombin being impaired
concentration inactivating plasminogen activator inhibitors [2]: about 10 mM

Molecule: N.N.O=S(=O)(O)OOS(=O)(=O)O [ammonium peroxodisulfate]
dependence of the conversion of the chromogenic plasmin substrate on the quantity of alpha2-antiplasmin in the plasma (urokinase [3]; 5% (NH4)2S2O8 in distilled water): does not depend on the quantity of alpha2 -antiplasmin

Molecule: O=S(=O)(NCl)c1ccccc1 [chloramine B]
results with chloramine B in place of chloramine T (plasmin [4]; Comparison Experiment 5b): the same as represented for chloramine T

factor by which the reaction between plasmin and alpha2-antiplasmin is slowed down [5]: at least 10
Molecule: NCCCCCC(=O)O [epsilon-aminocaproic acid]

Molecule: polylysine
PAI measured in presence of polycation in the plasminogen activator reagent (PAI1): only PAI2 (and not PAI1) was measured

factor by which the reaction between plasmin and alpha2-antiplasmin is slowed down [5]: at least 10
Molecule: NC[C@H]1CC[C@H](C(=O)O)CC1 [tranexamic acid]
tranexamic acid concentration at maximum (plasmin [4]; in the reaction mixture, basic buffer and PAI-deficient plasma): 1 to 4 mM
increase in plasmin activity with alpha2-antiplasmin-deficient plasma compared with normal plasma (plasmin [6]): about 70%
delta A/4 min (plasmin [6]; Normal plasma without alpha2-antiplasmin): 829 mA
delta A/4 min (plasmin [6]; Normal plasma): 488 mA

Molecule: protamine chloride
PAI measured in presence of polycation in the plasminogen activator reagent (PAI1): only PAI2 (and not PAI1) was measured

Molecule: NCCCC[C@H](N)C(=O)O [lysine]
increase of the activity of urokinase (urokinase [3]; addition of lysine (10% lysine in distilled water)): more than 100%
increase in the extinction compared with the sample without omega-amino carboxylic acid (urokinase [3]; without use of an oxidizing agent): more than 100%
factor by which the reaction between plasmin and alpha2-antiplasmin is slowed down [5]: at least 10

sensitivity to oxidation (urokinase [7]): less sensitive to oxidation
B1: PAI2: placental inhibitors: these include the inhibitors released from the placenta and leukocytes (protein, UniProt P05120 1-415, looked up)
Plasminogen activator …: MEDLCVANTLFALNLFKHLAKASPTQNLFLSPWSISSTMAMVYMGSRGSTEDQMAKVLQFNEVGANAVTPMTPENFTSCGFMQQIQKGSYPDAILQAQAADKIHSSFRSLSSAINASTGNYLLESVNKLFGEKSASFREEYIRLCQKYYSSEPQAVDFLECAEEARKKINSWVKTQTKGKIPNLLPEGSVDGDTRMVLVNAVYFKGKWKTPFEKKLNGLYPFRVNSAQRTPVQMMYLREKLNIGYIEDLKAQILELPYAGDVSMFLLLPDEIADVSTGLELLESEITYDKLNKWTSKDKMAEDEVEVYIPQFKLEEHYELRSILRSMGMEDAFNKGRANFSGMSERNDLFLSEVFHQAMVDVNEEGTEAAAGTGGVMTGRTGHGGPQFVADHPFLFLIMHKITNCILFFGRFSSP

— patent US5057414A, “Method for the determination of the activity of serine proteases or serine protease inhibitors” (Behringwerke Aktiengesellschaft, priority 1987, dated 1991)
